# Test results as given in patent publication US20110039721A1, “METHOD FOR PREDICTION ABOUT CARCINOGENICITY OF SUBSTANCE IN RODENT” (Chemicals Evaluation and Research Institute, priority 2007, published 2011).
# Legend:
# [1] = classification of the substance (M+/M−); cited from earlier work
# rodent = details: in vivo; cited from earlier work
# liver = details: in vivo; cited from earlier work
# [2] = tested on: mRNA expressed from the genes (A) to (D) in rat liver; test: Behavior of genes (mRNA expression level, oligo-DNA microarray) in rat liver after 28-day oral administration; assay type: in vivo
# In short: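 Liver mRNA levels were compared with matched vehicle groups, with a shift of at least 1.5-fold up or down deemed significant unless its direction disagreed with other carcinogens. Test substances were dosed orally by gavage daily for 28 days to 5-week-old male F344 rats, four per group.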
# [3] = gene group (A), Unigene No. Rn.167075
# [4] = gene group (C), Unigene No. Rn.120914
structure (smiles),measurement,setting,value
"C=C(C)[C@H]1CC=C(C)CC1 [TS024, D-Limonene]",Mutagenicity by Ames test,[1],M−
"O=[N+]([O-])c1cccc2ccccc12 [TS083, 1-Nitronaphthalene]",Carcinogenicity,rodent,C−
same,Liver carcinogenicity,liver,Cr−
same,"Behavior of gene caused by administration of chemical substance, Gene No. 4846","[2]; gene group (A), Unigene No. Rn.144554",−
same,"Behavior of gene caused by administration of chemical substance, Gene No. 2026",[2]; [3],+
same,"Behavior of gene caused by administration of chemical substance, Gene No. 4218",[2]; [3],−
same,"Behavior of gene caused by administration of chemical substance, Gene No. 6182","[2]; gene group (A), Unigene No. Rn.5834",−
same,"Behavior of gene caused by administration of chemical substance, Gene No. 5600","[2]; gene group (A), Unigene No. Rn.9836",−
same,"Behavior of gene caused by administration of chemical substance, Gene No. 1494","[2]; gene group (B), Unigene No. Rn.1430",+
same,"Behavior of gene caused by administration of chemical substance, Gene No. 2045","[2]; gene group (B), Unigene No. Rn.19329",−
same,"Behavior of gene caused by administration of chemical substance, Gene No. 2203","[2]; gene group (B), Unigene No. Rn.21240",−
same,"Behavior of gene caused by administration of chemical substance, Gene No. 533","[2]; gene group (C), Unigene No. Rn.106184",+
same,"Behavior of gene caused by administration of chemical substance, Gene No. 725","[2]; gene group (C), Unigene No. Rn.108075",+
same,"Behavior of gene caused by administration of chemical substance, Gene No. 1163","[2]; gene group (C), Unigene No. Rn.11766",−
same,"Behavior of gene caused by administration of chemical substance, Gene No. 4973","[2]; gene group (C), Unigene No. Rn.118529",+
same,"Behavior of gene caused by administration of chemical substance, Gene No. 4095","[2]; gene group (C), Unigene No. Rn.119024",+
same,"Behavior of gene caused by administration of chemical substance, Gene No. 1334",[2]; [4],+
same,"Behavior of gene caused by administration of chemical substance, Gene No. 6620",[2]; [4],+
same,"Behavior of gene caused by administration of chemical substance, Gene No. 6303","[2]; gene group (C), Unigene No. Rn.123063",+
same,"Behavior of gene caused by administration of chemical substance, Gene No. 5878","[2]; gene group (C), Unigene No. Rn.143213",−
same,"Behavior of gene caused by administration of chemical substance, Gene No. 1131","[2]; gene group (C), Unigene No. Rn.144946",−
same,"Behavior of gene caused by administration of chemical substance, Gene No. 1562","[2]; gene group (C), Unigene No. Rn.14744",+
same,"Behavior of gene caused by administration of chemical substance, Gene No. 1741","[2]; gene group (C), Unigene No. Rn.1647",+
same,"Behavior of gene caused by administration of chemical substance, Gene No. 893","[2]; gene group (C), Unigene No. Rn.164817",+
same,"Behavior of gene caused by administration of chemical substance, Gene No. 6026","[2]; gene group (C), Unigene No. Rn.167685",+
same,"Behavior of gene caused by administration of chemical substance, Gene No. 154","[2]; gene group (C), Unigene No. Rn.185941",+
same,"Behavior of gene caused by administration of chemical substance, Gene No. 1993","[2]; gene group (C), Unigene No. Rn.18728",+
same,"Behavior of gene caused by administration of chemical substance, Gene No. 813","[2]; gene group (C), Unigene No. Rn.201760",+
same,"Behavior of gene caused by administration of chemical substance, Gene No. 2494","[2]; gene group (C), Unigene No. Rn.23969",−
same,"Behavior of gene caused by administration of chemical substance, Gene No. 2546","[2]; gene group (C), Unigene No. Rn.24561",+
same,"Behavior of gene caused by administration of chemical substance, Gene No. 3776","[2]; gene group (C), Unigene No. Rn.43232",+
same,"Behavior of gene caused by administration of chemical substance, Gene No. 3929","[2]; gene group (C), Unigene No. Rn.4620",+
same,"Behavior of gene caused by administration of chemical substance, Gene No. 1119","[2]; gene group (C), Unigene No. Rn.9757",+
same,"Behavior of gene caused by administration of chemical substance, Gene No. 6742","[2]; gene group (C), Unigene No. Rn.9779",+
same,"Behavior of gene caused by administration of chemical substance, Gene No. 5634","[2]; gene group (C), Unigene No. Rn.9862",−
same,"Behavior of gene caused by administration of chemical substance, Gene No. 5726","[2]; gene group (D), Unigene No. Rn.9939",−
"O=P(OCCCl)(OCCCl)OCCCl [TS088, Tris(2-chloroethyl)phosphate]",Carcinogenicity,rodent,C+
same,Liver carcinogenicity,liver,Cr−
same,Behavior of gene caused by administration of chemical substance,"[2]; rat, in vivo",− and +
